Reference: ChEMBL document CHEMBL2057070, “Discovery of a novel azaindole class of antibacterial agents targeting the ATPase domains of DNA gyrase and Topoisomerase IV” (Bioorg Med Chem Lett, 2012)
≈ marks a conversion by molar mass, not a printed value.

Key:
Streptococcus pneumoniae = assay: Antibacterial activity against Streptococcus pneumoniae ARC548; type: functional
[1] = Inhibition of Streptococcus pneumoniae DNA Topoisomerase 4 subunit ParE
[2] = Lipophilicity, log D of the compound; settings: octanol/water
DNA gyrase subunit B = DNA gyrase subunit B (Staphylococcus aureus, UniProt P0A0K8); assay: Inhibition of Staphylococcus aureus DNA gyrase B expressed in Escherichia coli BL21(DE3) cells assessed ATP hydrolysis activity […] by malachite green reagent assay
Sequence of DNA gyrase subunit B (P0A0K8 whole entry): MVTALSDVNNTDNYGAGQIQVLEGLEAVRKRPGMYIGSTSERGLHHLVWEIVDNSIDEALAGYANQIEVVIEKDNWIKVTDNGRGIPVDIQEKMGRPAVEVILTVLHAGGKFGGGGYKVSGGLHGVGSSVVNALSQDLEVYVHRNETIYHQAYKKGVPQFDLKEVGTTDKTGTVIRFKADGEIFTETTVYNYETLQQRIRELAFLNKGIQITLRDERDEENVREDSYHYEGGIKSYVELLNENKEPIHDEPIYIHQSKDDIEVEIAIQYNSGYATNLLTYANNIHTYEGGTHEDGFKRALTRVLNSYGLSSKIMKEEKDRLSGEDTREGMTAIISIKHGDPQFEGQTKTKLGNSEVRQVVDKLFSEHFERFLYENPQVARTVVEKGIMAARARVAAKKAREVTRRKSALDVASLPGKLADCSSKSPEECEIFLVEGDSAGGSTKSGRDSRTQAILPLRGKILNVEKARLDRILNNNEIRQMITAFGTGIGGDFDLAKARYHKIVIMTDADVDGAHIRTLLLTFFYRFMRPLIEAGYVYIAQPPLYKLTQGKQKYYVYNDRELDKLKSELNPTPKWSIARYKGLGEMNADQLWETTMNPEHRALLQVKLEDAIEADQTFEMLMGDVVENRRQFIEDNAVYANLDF

[3] = Ratio of IC50 for Staphylococcus aureus DNA gyrase B to IC50 for Streptococcus pneumoniae Topoisomerase ParE
Staphylococcus aureus [4] = assay: Antibacterial activity against methicillin-sensitive Staphylococcus aureus; type: functional
Staphylococcus aureus [5] = assay: Antibacterial activity against methicillin-, quinolone-resistant Staphylococcus aureus; type: functional

Row | Compound | MIC (Streptococcus pneumoniae) | IC50 [1] | logD [2] | IC50 (DNA gyrase subunit B) | Ratio IC50 [3] | MIC (Staphylococcus aureus [4]) | MIC (Staphylococcus aureus [5])
1 | O=C(O)c1cncc(-c2cnc3[nH]c(C(=O)NC4CC4)cc3c2-n2ccc(C(F)(F)F)n2)c1 | 25 µM (≈ 11.4 µg/mL) | 6 nM | -0.98 | 39 nM | > 3 | > 25 µM | –
2 | CCNC(=O)c1cc2c(-n3ccc(C(F)(F)F)n3)c(-c3cncc(C#N)c3)cnc2[nH]1 | 0.2 µM (≈ 0.0851 µg/mL) | 10 nM | 2.62 | 23 nM | – | 3.13 µM (≈ 1.33 µg/mL) | 1.56 µM (≈ 0.664 µg/mL)
3 | CC(C)NC(=O)c1cc2c(-n3ccc(C(F)(F)F)n3)c(-c3cncc(C(=O)O)c3)cnc2[nH]1 | > 25 µM | 44 nM | -0.62 | 147 nM | – | > 25 µM | –
4 | O=C(O)/C=C/c1cccc(-c2cnc3[nH]ccc3c2)c1 | 200 µM (≈ 52.9 µg/mL) | – | 0.58 | – | – | > 200 µM | –
5 | CCNC(=O)c1cc2c(-n3ccc(C(F)(F)F)n3)c(-c3cncc(C(=O)NC)c3)cnc2[nH]1 | 0.098 µM (≈ 0.0448 µg/mL) | 16 nM | 2.21 | 11 nM | – | 6.25 µM (≈ 2.86 µg/mL) | 12.5 µM (≈ 5.72 µg/mL)
6 | CCNC(=O)c1cc2c(-n3ccc(C(F)(F)F)n3)c(-c3cncc(C(=O)O)c3)cnc2[nH]1 | 6.25 µM (≈ 2.78 µg/mL) | – | -0.99 | – | – | > 25 µM | –
7 | C[C@H]1COc2c(N3CCN(C)CC3)c(F)cc3c(=O)c(C(=O)O)cn1c23 [LEVOFLOXACIN] | 3.13 µM (≈ 1.13 µg/mL) | – | – | – | – | 0.78 µM (≈ 0.282 µg/mL) | > 25 µM
8 | CCNC(=O)c1cc2c(-n3ccc(C(F)(F)F)n3)c(-c3cncc(C(N)=O)c3)cnc2[nH]1 | 0.2 µM (≈ 0.0887 µg/mL) | – | – | – | – | 25 µM (≈ 11.1 µg/mL) | > 25 µM
9 | CCNC(=O)c1cc2c(-n3nc(C(F)(F)F)cc3C)c(-c3cncc(C(=O)O)c3)cnc2[nH]1 | 12.5 µM (≈ 5.73 µg/mL) | 65 nM | -0.88 | 133 nM | – | > 25 µM | –
10 | CO[C@@H]1[C@@H](OC(N)=O)[C@@H](O)[C@H](Oc2ccc3c(O)c(NC(=O)c4ccc(O)c(CC=C(C)C)c4)c(=O)oc3c2C)OC1(C)C [NOVOBIOCIN] | 0.78 µM (≈ 0.478 µg/mL) | – | – | – | – | 0.39 µM (≈ 0.239 µg/mL) | 0.39 µM (≈ 0.239 µg/mL)
11 | CCCNC(=O)c1cc2c(-n3ccc(C(F)(F)F)n3)c(-c3cncc(C(=O)O)c3)cnc2[nH]1 | > 25 µM | 45 nM | -0.79 | 58 nM | – | > 25 µM | –
12 | CCNC(=O)c1cc2c(-n3ccc(C(F)(F)F)n3)c(-c3cc(-c4n[nH]c(=O)o4)cnc3OC)cnc2[nH]1 | < 0.02 µM | 3 nM | 2.91 | 2 nM | – | 0.098 µM (≈ 0.0504 µg/mL) | 0.2 µM (≈ 0.103 µg/mL)
13 | CCNC(=O)c1cc2c(-n3ccc(C(F)(F)F)n3)c(-c3cncc(-c4n[nH]c(=O)o4)c3)cnc2[nH]1 | < 0.03 µM | 3 nM | 1.65 | < 1 nM | – | 0.4 µM (≈ 0.194 µg/mL) | 1.1 µM (≈ 0.533 µg/mL)
14 | CCNC(=O)c1cc2c(-n3ccc(C(F)(F)F)n3)c(-c3cnc(OC)c(-c4n[nH]c(=O)o4)c3)cnc2[nH]1 | < 0.03 µM | 3 nM | – | 4 nM | – | 0.78 µM (≈ 0.401 µg/mL) | 1.56 µM (≈ 0.803 µg/mL)
